According to article PMC12040169 (PLOS Biology, 2025):

Assay: in vitro
Details: human, hela cells, % viability

SMILES	viability at 28.5 h, 10 µM
Cc1cc(C(=O)NCCn2ccc(C)n2)c2cccc(Cl)c2n1 [CBK282549]	79.6%
Nc1nn2c(c1Cc1c(Cl)cccc1Cl)OCCC2 [CBK088843]	92.8%
Cc1ccc(C(=O)COc2ccc(/C=C(\C#N)c3nc(-c4ccc5c(c4)OCO5)cs3)cc2)cc1 [CBK266778]	101%
COc1cc(CCN2C(=O)c3cccc4cccc(c34)C2=O)c(S(=O)(=O)N2CCCC2)cc1OC [CBK264947]	102%
COc1ccc(C(=O)C2=C(O)C(=O)N(Cc3cccnc3)C2c2cccc(OC)c2OC)cc1C (stereo not shown) [CBK264906]	92.8%
Cc1ccccc1Cc1cccc(C2CCN(S(=O)(=O)c3cn[nH]c3)CC2)n1 [CBK286125]	90.8%
COc1ccccc1-c1noc(CN2CCCC(C(F)(F)F)C2)n1 (stereo not shown) [CBK305598]	93.6%
O=C(OCc1ccc(Sc2ccc([N+](=O)[O-])cc2Cl)cc1)c1cnccn1 [CBK268037]	93.4%
N#Cc1nc(-c2ccccc2)oc1NCCN1CCCCC1 [CBK264573]	93.5%
COCC(=O)N1CCC2(C/C=C/C[C@H]3COCC[C@@H]3NC(=O)CNC2=O)CC1 [CBK292158]	95.2%
COc1cccc2cc(C(=O)NCc3ccc4c(c3)OCO4)oc12 [CBK149797]	90.9%
CNCCOc1ncccc1OCc1ccccc1 [CBK036306]	100%
COc1cc(CN2CCNC(=O)C2CC(=O)O)cc(OC)c1 (stereo not shown) [CBK269752]	105%
CC(=O)Nc1ccc(/C=N/NC(=O)c2nnn(-c3nonc3N)c2-c2ccccc2)cc1 [CBK262790]	94.9%
CC(=O)NCc1ccc(C)n1C [CBK046356]	106%
CCOC(=O)C(NC(=O)C1CCC(=O)N1)c1cccc(C)c1C (stereo not shown) [CBK305472]	93.8%
CCOc1ccccc1CNCc1ccccn1 [CBK268041C]	103%
CCCN1CC(NC(=O)c2cc(COc3cccc(F)c3)[nH]n2)CC1=O (stereo not shown) [CBK306912]	82.2%
O=C(CCN1CCOCC1)N/N=C\c1cccs1 [CBK005035]	90.6%
CC1CCc2c(sc(NC(=O)COc3ccccc3)c2C(=O)Nc2ccccc2Cl)C1 (stereo not shown) [CBK263044]	101%
O=C(NC(c1ccc2ccccc2n1)c1cccs1)C1CCNCC1 (stereo not shown) [CBK148331]	98.9%
CCN(c1ccc(NC(=O)Cn2nc(C(=O)O)c3ccccc3c2=O)cc1)C(C)C [CBK297734]	94.5%

SMILES	viability at 28.5 h, 10 µM
COc1cccc(CN2CCC(C(=O)O)CC2)c1OC [CBK286548]	90.5%
Cc1ccc(S(N)(=O)=O)cc1C(=O)NC(C)CCc1ccccc1 (stereo not shown) [CBK296671]	87.2%
O=C(OCc1ccccc1)N1CCN(c2ccccc2)CC1 [CBK200241]	116%
CN1C(=O)c2ccccc2OCCCCC[C@H]2[C@@H]1CCCN2C(=O)c1ccccc1Cn1cncn1 [CBK292114]	110%
Cc1csc(C(Cc2ccsc2)NC(=O)c2c(C)noc2C)n1 (stereo not shown) [CBK285045]	102%
FC(F)(F)c1ccc(-c2c[nH]c([C@@H]3COCCN3Cc3csnn3)n2)cc1 [CBK289318]	92.2%
O=C(O)c1ccc(CN2CCOC[C@H]2c2nc(-c3ccc(F)cc3)c[nH]2)cc1 [CBK289304]	91.2%
O=c1[nH]c2ncc(-c3cccc(CO)c3)nc2n1CC1CC1 [CBK065088]	63.9%
Cc1ccc(-c2ncc3c(=O)[nH]c(=O)n(C)c3n2)cc1 [CBK288553]	89.6%
Cc1cc(C[C@@H]2CCC[C@H]2NCc2cc(Cl)ccc2O)on1 [CBK282997]	103%
O=C(O)[C@@H]1CCCN1C(=O)C1CCC(Cn2nnc3ccccc3c2=O)CC1 (stereo partly shown) [CBK286658]	88.6%
O=C(c1ccccc1)N1C[C@@H]2CCCCN(CC3CC3)[C@@H]2C1 [CBK285498]	102%
COc1ccccc1NC(=O)CC1S/C(=N\N=C2/CCCc3ccccc32)N=C1O (stereo not shown) [CBK263748]	102%
COc1ccc(NC(=O)C2CCCN2S(=O)(=O)c2ccc(OC)cc2)cc1 (stereo not shown) [CBK070001]	78.1%
CN1CCN(c2nc(-c3ccccc3CO)cn3ccnc23)CC1 [CBK066347]	87.1%
O=C(NCCCc1ccc(Cl)cc1)c1cc2c([nH]c1=O)CCC2 [CBK281560]	89%
O=C(CSCc1ccc(Cl)c(Cl)c1)Nc1cccnc1 [CBK268542]	112%
CCOC(=O)n1c(=O)n2n(c1=O)CC=CC2 [CBK023102]	93.9%
O=C(COc1ccccc1[N+](=O)[O-])Nc1cnc(-c2cccc(C(F)(F)F)c2)c(-c2ccco2)n1 [CBK036899]	86.3%
COc1ccc(C(=O)N2CCC3(CCCN(C(=O)c4ccco4)C3)C2)cc1OC (stereo not shown) [CBK131647]	98.2%
Nc1ncnc2[nH]nc(Nc3ccc(F)cc3)c12 [CBK122523]	79%
O=C(CCn1c(=O)oc2ccccc21)N1CC=C(c2ccc(F)cc2)CC1 [CBK295602]	95.8%

SMILES	viability at 28.5 h, 10 µM
CCCc1nnc(SCC(=O)Nc2ccc(CN3CCOCC3)cc2)[nH]1 [CBK305583]	82.4%
CC(=O)N1CC[C@H]2NC(=O)CNC(=O)C3(CCCC[C@H]2C1)CCNCC3 [CBK292142]	93.8%
CCn1ncc(S(=O)(=O)Nc2ccc3c(c2)cc(C)n3C)c1C [CBK282761]	95.6%
COc1cc2c(cc1OC)C1(CCOCC1)CNC2CC(c1ccccc1)c1ccccc1 (stereo not shown) [CBK014382]	91.4%
Cc1ccc(-n2ncc(C(=O)N3CCc4ccccc4C3)c2NC(=O)c2ccco2)cc1C [CBK267207]	100%
COc1ccc2nc(C(=O)O)sc2c1 [CBK026523N]	88.4%
O=C(CCc1ccccc1)Nc1cccc2nsnc12 [CBK265680]	85.3%
Cc1nnc2c(=O)n(CC(=O)N3CCN(C(C)C)CC3)c3cccnc3n12 [CBK288601]	94.3%
c1ccc2c(c1)CCN(c1nc3cc4c(cc3s1)OCCO4)C2 [CBK287498]	82.8%
CSc1nsc(SCC(=O)Nc2ccc3c(c2)OCO3)n1 [CBK270044]	88.6%
CCn1c(COc2cccc3cccnc23)nnc1SCC(=O)c1ccc(F)cc1 [CBK265656]	86.8%
O=C(CN1C(=O)COc2ccccc21)NC1CC1 [CBK270261]	96%
COc1cccc(CCN2CCC(C(=O)NC(C)c3cccc4ccccc34)CC2)c1 (stereo not shown) [CBK148650]	93.3%
O=C1S/C(=C/c2ccc(Cl)cc2)C(=O)N1c1ccc(F)cc1 [CBK113265]	102%
C[C@H](NC1=NC(=O)[C@@](C)(C(C)(C)O)S1)c1ccc(F)cc1 [CBK138436]	98.1%
CCOc1ccc(NC(=O)C(=O)NC2CCCCC2)cc1 [CBK261822]	105%
Nc1nc(OCc2ccc3c(c2)OCO3)cnc1/C=C/c1ccccc1 [CBK145123]	92.7%
CN1CC(C(=O)N2CCC(c3cc4ccccc4cn3)CC2)CC1=O (stereo not shown) [CBK284870]	96.8%
O=S(=O)(c1ccc(Cl)c(S(=O)(=O)N2CCOCC2)c1)c1ccc(Cl)c(S(=O)(=O)N2CCOCC2)c1 [CBK261369]	112%
O=C(Cn1c(C2CCCNC2)cc2cccnc21)N1CCCCCC1 (stereo not shown) [CBK285014]	86.3%
Cc1nnc2sc(-c3cccc(NC(=S)NC(=O)c4cc5ccccc5o4)c3)nn12 [CBK267282]	87.4%
O=c1oc2ccccc2n1C1CCN(Cc2nc3ccccc3n2Cc2ccccc2)CC1 [CBK286176]	102%

SMILES	viability at 28.5 h, 10 µM
Cc1ccc(Cl)cc1NC(=O)c1cc(NC(=O)C2C3C=CC(C3)C2C(=O)O)ccc1N1CCCCC1 (stereo not shown) [CBK268194]	85.9%
CS(=O)(=O)N1CC[C@H](c2nc3ccccc3s2)C1 [CBK289374]	77.8%
CC(C)(C)OC(=O)N[C@@H]1C(=O)OC(C(O)CO)[C@@H]1O (stereo partly shown) [CBK008178]	118%
COc1ccccc1NC(=O)C(C)N1C(=O)c2ccccc2C1=O (stereo not shown) [CBK261043]	92%
COc1ccc(N2CCN(c3cncc(-c4cccs4)n3)CC2)cc1OC [CBK065687]	104%
Cn1cnnc1Sc1cc(N2CCN(S(=O)(=O)c3ccc(Cl)c(Cl)c3)CC2)ccc1[N+](=O)[O-] [CBK266618]	98.3%
CC(C)(C)NC(=O)CN1C(=O)N2CCCN=C2c2ccc(Cl)cc21 [CBK284391]	102%
O=C(O)CC1SC(Nc2ccc(F)cc2F)=NC1=O (stereo not shown) [CBK200115]	99.3%
CC(C)n1ncc2cc(C(=O)Nc3ncccc3O)cnc21 [CBK305751]	109%
O=C(c1ccc(OC(F)(F)F)cc1)N1CCC2(CCCNC2)C1 (stereo not shown) [CBK137156C]	87.7%
Clc1ccc(SCCCNCCN2CCOCC2)cc1 [CBK268603C]	90.3%
CC1Cc2cc(C(O)CN3CCCCC3)ccc2N1C(=O)C1CC1 (stereo not shown) [CBK283144]	97.4%
CS(=O)(=O)N1CCN(c2ccc(NC(=O)COc3ccc4ccccc4c3)cc2)CC1 [CBK266450]	96.8%
O=C1NC2(CCC2)C(=O)N1Cc1nn(-c2ccccc2)c2c1CCC2 [CBK306383]	95.6%
Cc1cnn(C2(C(=O)O)CCN(C(=O)c3cccc(C#N)c3)CC2)c1 [CBK307058]	102%
O=C(Nc1ccc2oc(-c3cccnc3)nc2c1)c1cccc(OCc2ccccc2)c1 [CBK263420]	94.4%
O=C1NC2(CCc3ccccc31)CCN(C(=O)c1ccccn1)C2 (stereo not shown) [CBK283337]	96%
CNC(=O)C1(Cc2ccc(-c3ccccc3)cc2)CCN(C(=O)Cc2ccc(C)cc2)CC1 [CBK285769]	90.4%
Cn1cc(C(=O)Nc2cccc(S(=O)(=O)N3CCCCCC3)c2)cn1 [CBK305715]	87.2%
CCc1nc2cc(NC(=O)c3cc(C4CC4)nn3C)ccc2n1C [CBK283275]	85.8%
CCOc1ccc(S(=O)(=O)N(C)CC(=O)O)cc1 [CBK270032]	90.4%

Same assay, conditions: human, hela cells, % viability, bulk resorufin, single well

SMILES	viability at 28.5 h, 10 µM
CC(C)(C)NC(=O)N1CCC2(CC1)OCc1cc(Br)ccc1O2 [CBK060739]	106%
